In ChEMBL document CHEMBL1909046, “DrugMatrix in vitro pharmacology data” one finds IC50 and Ki data, which are given here for 17 molecules.

Experiment [1] concerns the target Sodium-dependent dopamine transporter (Homo sapiens, UniProt Q01959). Put plainly: DRUGMATRIX: Dopamine Transporter radioligand binding (ligand: [125I] RTI-55). It is filed as cell membranes, CHO-K1, Membrane. To be noted: Not Active = under 50% inhibition at 10 µM; for Ki: read-out: Ki.
For experiment [2], the target named is T1, Alpha-2C adrenergic receptor (Homo sapiens, UniProt P18825).
T1 sequence (P18825 whole entry): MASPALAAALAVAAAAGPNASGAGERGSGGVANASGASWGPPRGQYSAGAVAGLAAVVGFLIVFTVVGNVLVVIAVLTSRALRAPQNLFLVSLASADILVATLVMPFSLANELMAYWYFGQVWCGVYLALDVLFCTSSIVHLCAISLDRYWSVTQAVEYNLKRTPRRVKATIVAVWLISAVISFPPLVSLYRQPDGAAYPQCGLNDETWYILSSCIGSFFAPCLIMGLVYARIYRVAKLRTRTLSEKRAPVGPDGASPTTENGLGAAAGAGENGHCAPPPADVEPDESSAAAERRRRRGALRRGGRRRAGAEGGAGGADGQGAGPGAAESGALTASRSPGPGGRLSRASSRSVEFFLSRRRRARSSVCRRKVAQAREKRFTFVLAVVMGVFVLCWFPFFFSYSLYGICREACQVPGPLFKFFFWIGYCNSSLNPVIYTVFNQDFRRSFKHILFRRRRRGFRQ
Put plainly: DRUGMATRIX: Adrenergic Alpha-2C radioligand binding (ligand: [3H] MK-912). The experiment is classed as cell membranes, Sf9, Membrane. The note with it: for Ki: read-out: Ki.

Experiment [3] addresses T2, Neuropeptide Y receptor type 2 (Homo sapiens, UniProt P49146).
T2 sequence (P49146 whole entry): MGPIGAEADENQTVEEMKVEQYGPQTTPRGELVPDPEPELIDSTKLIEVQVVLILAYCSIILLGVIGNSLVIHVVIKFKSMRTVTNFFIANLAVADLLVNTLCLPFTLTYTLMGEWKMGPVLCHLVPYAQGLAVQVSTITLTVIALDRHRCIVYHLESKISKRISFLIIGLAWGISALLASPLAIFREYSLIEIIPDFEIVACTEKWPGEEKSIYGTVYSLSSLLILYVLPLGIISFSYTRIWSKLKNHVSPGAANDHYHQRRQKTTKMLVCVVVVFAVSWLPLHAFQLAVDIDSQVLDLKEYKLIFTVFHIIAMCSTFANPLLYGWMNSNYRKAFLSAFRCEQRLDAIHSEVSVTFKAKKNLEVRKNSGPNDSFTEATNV
The experiment is classed as cell membranes, Membrane. The note with it: kan-ts.

The target of another experiment is Acetylcholinesterase (Homo sapiens, UniProt P22303). The experiment in a line: DRUGMATRIX: Acetylcholinesterase enzyme inhibition (substrate: acetylthiocholine). The experiment is classed as cell-based, HEK293. To be noted: Not Active = under 50% inhibition at 10 µM.
The target of another experiment is T3, Glucocorticoid receptor (Homo sapiens, UniProt P04150). Further: in other assays of this panel Not Active means under 50% inhibition at 10 µM.
T3 sequence (P04150 whole entry): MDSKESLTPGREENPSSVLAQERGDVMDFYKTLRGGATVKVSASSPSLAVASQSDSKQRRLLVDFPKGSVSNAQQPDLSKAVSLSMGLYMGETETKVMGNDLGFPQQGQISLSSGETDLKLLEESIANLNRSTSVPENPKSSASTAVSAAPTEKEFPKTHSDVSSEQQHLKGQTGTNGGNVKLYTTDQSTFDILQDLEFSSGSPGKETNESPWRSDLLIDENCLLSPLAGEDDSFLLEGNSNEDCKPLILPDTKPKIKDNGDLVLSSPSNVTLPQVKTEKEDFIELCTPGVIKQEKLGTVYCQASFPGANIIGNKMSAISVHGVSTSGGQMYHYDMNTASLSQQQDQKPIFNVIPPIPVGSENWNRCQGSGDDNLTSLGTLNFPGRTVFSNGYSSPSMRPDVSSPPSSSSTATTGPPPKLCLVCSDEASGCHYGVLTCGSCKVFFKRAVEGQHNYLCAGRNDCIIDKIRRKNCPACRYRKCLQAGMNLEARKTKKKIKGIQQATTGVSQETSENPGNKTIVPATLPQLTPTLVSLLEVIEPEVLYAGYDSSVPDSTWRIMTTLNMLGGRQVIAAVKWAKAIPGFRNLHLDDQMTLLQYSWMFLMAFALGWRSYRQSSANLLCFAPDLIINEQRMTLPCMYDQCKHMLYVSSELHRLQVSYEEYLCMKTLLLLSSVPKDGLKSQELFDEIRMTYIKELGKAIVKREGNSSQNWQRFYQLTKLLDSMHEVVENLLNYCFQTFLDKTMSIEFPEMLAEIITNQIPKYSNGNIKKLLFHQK
To be noted: hela s3.

A short description of experiment [4]: DRUGMATRIX: Calcium Channel Type L, Phenylalkylamine radioligand binding (ligand: [3H] (-)-Desmethoxyverapamil (D-888)). It is filed as cell membranes, Rattus norvegicus, Wistar, Brain, Membrane. The note with it: Not Active = under 50% inhibition at 10 µM.

Chain of Sodium-dependent dopamine transporter (Q01959 whole entry): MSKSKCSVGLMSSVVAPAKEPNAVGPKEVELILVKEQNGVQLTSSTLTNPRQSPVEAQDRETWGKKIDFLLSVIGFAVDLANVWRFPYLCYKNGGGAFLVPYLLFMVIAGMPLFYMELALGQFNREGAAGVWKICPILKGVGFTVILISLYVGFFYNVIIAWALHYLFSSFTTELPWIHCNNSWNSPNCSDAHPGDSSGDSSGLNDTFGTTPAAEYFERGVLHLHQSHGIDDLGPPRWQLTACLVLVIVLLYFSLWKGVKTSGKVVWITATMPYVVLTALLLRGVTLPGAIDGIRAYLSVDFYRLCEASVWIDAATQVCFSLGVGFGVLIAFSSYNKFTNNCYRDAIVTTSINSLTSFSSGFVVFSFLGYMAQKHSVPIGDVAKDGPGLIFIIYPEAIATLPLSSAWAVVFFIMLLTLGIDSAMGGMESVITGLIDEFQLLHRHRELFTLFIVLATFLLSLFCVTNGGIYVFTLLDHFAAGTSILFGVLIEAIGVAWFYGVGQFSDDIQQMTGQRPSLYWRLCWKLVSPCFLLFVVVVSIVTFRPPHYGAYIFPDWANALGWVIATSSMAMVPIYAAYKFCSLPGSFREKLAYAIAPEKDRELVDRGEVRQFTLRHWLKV
Chain of Acetylcholinesterase (P22303 whole entry): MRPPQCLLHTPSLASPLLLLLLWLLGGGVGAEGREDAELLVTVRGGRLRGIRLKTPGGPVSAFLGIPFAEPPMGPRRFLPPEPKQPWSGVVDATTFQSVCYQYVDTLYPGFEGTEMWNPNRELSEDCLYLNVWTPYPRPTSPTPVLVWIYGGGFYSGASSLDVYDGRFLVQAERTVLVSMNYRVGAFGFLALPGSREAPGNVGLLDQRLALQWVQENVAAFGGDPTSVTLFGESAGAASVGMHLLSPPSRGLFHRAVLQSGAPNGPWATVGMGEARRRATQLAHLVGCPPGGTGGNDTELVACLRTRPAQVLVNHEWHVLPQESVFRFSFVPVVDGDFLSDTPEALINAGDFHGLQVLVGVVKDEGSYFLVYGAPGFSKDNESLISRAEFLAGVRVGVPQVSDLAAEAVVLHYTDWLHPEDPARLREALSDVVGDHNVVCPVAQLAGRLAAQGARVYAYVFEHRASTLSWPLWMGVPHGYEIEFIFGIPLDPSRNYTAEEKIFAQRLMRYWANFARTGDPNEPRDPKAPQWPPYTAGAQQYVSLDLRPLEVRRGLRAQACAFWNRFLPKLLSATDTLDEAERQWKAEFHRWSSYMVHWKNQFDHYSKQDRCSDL

As a reminder, the IC50 is the concentration that gives 50% inhibition. As usually defined, the Ki is a dissociation constant, usually derived from enzyme kinetics or from competition with a known ligand. For `C[C@@H]1[C@H](O)[C@@H](C)/C=C/C=C/C=C/C=C/C=C/C=C/C=C/[C@H](O[C@@H]2O[C@H](C)[C@@H](O)[C@H](N)[C@@H]2O)C[C@@H]2O[C@](O)(C[C@@H](O)C[C@@H](O)[C@H](O)CC[C@@H](O)C[C@@H](O)CC(=O)O[C@H]1C)C[C@H](O)[C@H]2C(=O)O` [AMPHOTERICIN B], the half-inhibitory concentration (IC50) result (in experiment [1] (cho-k1); in experiment [2] (sf9); in experiment [3]; at Acetylcholinesterase (hek293); against Glucocorticoid receptor; in experiment [4]) was “Not Active” each time. The Ki entry in experiment [4] is given as “Not Active”.

In the case of `CC(C)(C#N)c1cc(Cn2cncn2)cc(C(C)(C)C#N)c1` [ANASTROZOLE], the IC50 result (in experiment [1] (cho-k1); in experiment [2] (sf9); in experiment [3]; against Acetylcholinesterase (hek293); at Glucocorticoid receptor; in experiment [4]) was “Not Active” throughout. Also, the Ki result in experiment [4] was “Not Active”.

Consider `C[C@]12CC[C@@H](O)C[C@@H]1CC[C@@H]1[C@@H]2CC[C@]2(C)C(=O)CC[C@@H]12` [ANDROSTERONE], for which the IC50 result (in experiment [1] (cho-k1); in experiment [2] (sf9); in experiment [3]; against Acetylcholinesterase (hek293); on Glucocorticoid receptor; in experiment [4]) was “Not Active” in each case. Also, the Ki entry in experiment [4] was “Not Active”.

Turning to `NCC(CC(=O)O)c1ccc(Cl)cc1` (centres undefined) [BACLOFEN], the concentration for half-maximal inhibition (IC50) entry (in experiment [1] (cho-k1); in experiment [2] (sf9); in experiment [3]; against Acetylcholinesterase (hek293); against Glucocorticoid receptor; in experiment [4]) was “Not Active” throughout. In addition, the Ki result in experiment [4] is given as “Not Active”.

As for `c1ccc2sc(SSc3nc4ccccc4s3)nc2c1` [BENZOTHIAZYL DISULFIDE], the IC50 was 245 nM in experiment [1] (read-out: IC50); 1660 nM in experiment [2] (read-out: IC50); “Not Active” in experiment [3]; “Not Active” at Acetylcholinesterase (hek293); “Not Active” at Glucocorticoid receptor; “Not Active” in experiment [4]. Moreover, the results for the inhibitory constant (Ki) in experiment [1], in experiment [2] and in experiment [4] were 194 nM, 241 nM and “Not Active”, respectively.

For the molecule `OC[C@H]1O[C@@H]2O[C@H]3[C@H](O)[C@@H](O)[C@@H](O[C@H]4[C@H](O)[C@@H](O)[C@@H](O[C@H]5[C@H](O)[C@@H](O)[C@@H](O[C@H]6[C@H](O)[C@@H](O)[C@@H](O[C@H]7[C@H](O)[C@@H](O)[C@@H](O[C@H]8[C@H](O)[C@@H](O)[C@@H](O[C@H]1[C@H](O)[C@H]2O)O[C@@H]8CO)O[C@@H]7CO)O[C@@H]6CO)O[C@@H]5CO)O[C@@H]4CO)O[C@@H]3CO` [BETADEX], the half-inhibitory concentration (IC50) entry (in experiment [1] (cho-k1); in experiment [2] (sf9); in experiment [3]; against Acetylcholinesterase (hek293); against Glucocorticoid receptor; in experiment [4]) was “Not Active” in each case. Besides, the inhibitory constant (Ki) entry in experiment [4] was “Not Active”.

Regarding `Cc1c(N)nc([C@H](CC(N)=O)NC[C@H](N)C(N)=O)nc1C(=O)N[C@H](C(=O)N[C@H](C)[C@@H](O)[C@H](C)C(=O)N[C@H](C(=O)NCCc1nc(-c2nc(C(=O)NCCC[S+](C)C)cs2)cs1)[C@@H](C)O)[C@@H](O[C@@H]1O[C@@H](CO)[C@@H](O)[C@H](O)[C@@H]1O[C@H]1O[C@H](CO)[C@@H](O)[C@H](OC(N)=O)[C@@H]1O)c1c[nH]cn1.[Br-]` [BLEOMYCIN A2], the 50% inhibitory concentration (IC50) entry (in experiment [1] (cho-k1); in experiment [2] (sf9); in experiment [3]; against Acetylcholinesterase (hek293); at Glucocorticoid receptor; in experiment [4]) was “Not Active” throughout. Also, the Ki result in experiment [4] is recorded as “Not Active”.

For the molecule `CN(Cc1cc(Br)cc(Br)c1N)C1CCCCC1` [BROMHEXINE], the half-maximal inhibitory concentration (IC50) result (in experiment [1] (cho-k1); in experiment [2] (sf9); in experiment [3]; at Acetylcholinesterase (hek293); on Glucocorticoid receptor; in experiment [4]) was “Not Active” each time. The Ki entry in experiment [4] was “Not Active”.

In the case of `CC(N)Cc1c[nH]c2ccc(OCc3cccs3)cc12` (centres undefined) [BW-723C86], the IC50 in experiment [1] (read-out: IC50) is 2680 nM; in experiment [2] (sf9), “Not Active”; in experiment [3], “Not Active”; against Acetylcholinesterase (hek293) it was “Not Active”; against Glucocorticoid receptor, “Not Active”; in experiment [4] (read-out: IC50), 4340 nM. Besides, the Ki turned out to be 2130 nM in experiment [1] and 4220 nM in experiment [4] (read-out: Ki).

On to `CC12CCC(CC1=O)C2(C)C` (centres undefined) [CAMPHOR], for which the concentration for half-maximal inhibition (IC50) entry (in experiment [1] (cho-k1); in experiment [2] (sf9); in experiment [3]; against Acetylcholinesterase (hek293); at Glucocorticoid receptor; in experiment [4]) was “Not Active” throughout. Moreover, the inhibitory constant (Ki) entry in experiment [4] is “Not Active”.

As for `CCCCCCNC(=O)n1cc(F)c(=O)[nH]c1=O` [CARMOFUR], the IC50 entry (in experiment [1] (cho-k1); in experiment [2] (sf9); in experiment [3]; at Acetylcholinesterase (hek293); against Glucocorticoid receptor; in experiment [4]) was “Not Active” throughout. In experiment [4], the Ki result was “Not Active”.

`COc1ccccc1OCCNCC(O)COc1cccc2[nH]c3ccccc3c12` (centres undefined) [CARVEDILOL]: the half-maximal inhibitory concentration (IC50) was 845 nM in experiment [1] (read-out: IC50); 90 nM in experiment [2] (read-out: IC50); “Not Active” in experiment [3]; “Not Active” against Acetylcholinesterase (hek293); “Not Active” at Glucocorticoid receptor; 389 nM in experiment [4] (read-out: IC50). For the same molecule, the results for the Ki in experiment [1], in experiment [2] and in experiment [4] (read-out: Ki) were 671 nM, 13 nM and 378 nM, respectively.

For `CC1(COc2ccc(CC3SC(=O)NC3=O)cc2)CCCCC1` (centres undefined) [CIGLITAZONE], the IC50 entry in experiment [1] (cho-k1) was “Not Active”; in experiment [2] (sf9), “Not Active”; in experiment [3], “Not Active”; on Acetylcholinesterase (read-out: IC50) it was 15000 nM; on Glucocorticoid receptor, “Not Active”; in experiment [4] it was “Not Active”. Besides, the Ki result in experiment [4] is given as “Not Active”.

`CC(C)Cc1ccc([C@H](C)C(=O)O)cc1` [DEXIBUPROFEN]: the IC50 entry (in experiment [1] (cho-k1); in experiment [2] (sf9); in experiment [3]; against Acetylcholinesterase (hek293); on Glucocorticoid receptor; in experiment [4]) was “Not Active” in each case. Moreover, the Ki entry in experiment [4] is listed as “Not Active”.

`O=c1[nH]cnc2c1ncn2[C@H]1CC[C@@H](CO)O1` [DIDANOSINE]: the IC50 entry (in experiment [1] (cho-k1); in experiment [2] (sf9); in experiment [3]; against Acetylcholinesterase (hek293); on Glucocorticoid receptor; in experiment [4]) was “Not Active” in each case. In addition, the Ki entry in experiment [4] is “Not Active”.

On to `ClC1=C(Cl)[C@]2(Cl)[C@@H]3[C@@H]4C[C@@H]([C@H]5O[C@@H]45)[C@@H]3[C@@]1(Cl)C2(Cl)Cl` [DIELDRIN], for which the IC50 result (in experiment [1] (cho-k1); in experiment [2] (sf9); in experiment [3]; on Acetylcholinesterase (hek293); at Glucocorticoid receptor; in experiment [4]) was “Not Active” each time. The inhibition constant Ki result in experiment [4] was “Not Active”.

As to `CCN1CCN(c2cc3c(cc2F)c(=O)c(C(=O)O)cn3C2CC2)CC1` [ENROFLOXACIN], the IC50 result (in experiment [1] (cho-k1); in experiment [2] (sf9); in experiment [3]; at Acetylcholinesterase (hek293); against Glucocorticoid receptor; in experiment [4]) was “Not Active” in each case. For the same molecule, in experiment [4], the inhibition constant Ki result is “Not Active”.
